From article PMC4055595, “Pharmacokinetic Compatibility of Ginsenosides and Schisandra Lignans in Shengmai-san: From the Perspective of P-Glycoprotein” (PLoS ONE, 2014) come the findings set out here.

Structures are written as SMILES. Read-outs that look alike come from different tables or passages of the source.

Data set [1] deals with LLC-PK1 cells (lacking P-gp). The data set is described as follows: Transport of digoxin and ginsenosides across LLC-PK1 cell monolayers. The class given is in vitro ADME. The following applies: for Effect of verapamil on transport (efflux ratio): 10 µM verapamil; for Effect of SLE on transport (AP→BL, BL→AP): SLE 2.0 and 10.0 µg/mL. As to the method: (§1) LLC-PK1 cells, a cell line lacking P-gp, and the derived cell line L-MDR1, which over-express human MDR1-encoded P-gp, were grown in minimum essential medium with supplements at 37°C, 5% CO2, and 95% humidity. LLC-PK1 and L-MDR1 cells were seeded at a density of 12×10^6 cells per 150-cm^2 flask and grown for 7 days in medium 199 supplemented with 2 mM glutamine, 10% fetal bovine serum, 10 mg/500 mL of streptomycin, and 10,000 IU/500 mL of penicillin. To ensure a constant expression level of transport protein, L-MDR1 cells were grown in the presence of 640 nM vincristine. Cells were grown as monolayer on polycarbonate membrane filters (Transwell; Costar Corporation, Cambridge, MA) as outlined previously. Transepithelial resistance was measured in each well using a Millicell ERS ohmmeter (Millipore, Bedford, MA); wells registering a resistance of 200 ohms or greater, after correcting for the resistance obtained in control blank wells, were used in the transport experiments.
The LLC-PK1 and L-MDR1 cells were washed with warm Hank's balanced salt solution HBSS (pH 7.4) twice before transport experiment. HBSS containing verapamil (10 µM), SLE (2.0 and 10.0 µg/mL) or blank HBSS (control) was then loaded into both apical and basolateral chambers. After incubation at 37°C for 1.5 h, GE (100 µg/mL) was added to either the apical or basolateral side to evaluate the transport in absorptive and secretive directions, respectively. The cell monolayer was then incubated for another 2 h. Finally, the concentrations of ginsenosides were determined by LC/MS. All experiments were conducted in triplicate.
(§2) For the transport assay, the apparent permeability (P app, cm/s) in each direction (A→B and B→A) was calculated as follows, where A is the surface area of the membrane inserts (0.0804 cm^2), C 0 is the initial concentration of the compound applied in the donor compartment (2 µM), and △Q is the amount (micromoles) of compound transported over time △t (5 h = 18,000 s): [drawing 1]
(§3) The efflux ratio (ER) was a dimensionless number calculated as the ratio of the apparent permeability in the B→A direction divided by the apparent permeability in the A→B direction. [drawing 2]

In data set [2] the target is human MDR1-encoded P-gp (L-MDR1 cells) (Homo sapiens, UniProt P08183). Description: Uptake (intracellular concentration) of digoxin and ginsenosides in L-MDR1 cells. The class given is in vitro ADME. As to the method:
as §1
LLC-PK1 and L-MDR1 cells were incubated with SLE (2.0 and 10.0 µg/mL) or verapamil (10 µM) for 1.0 h, and then were washed to discard SLE or verapamil before adding 100 µg/mL of GE. The accumulation of GE lasted for 2 h, and the intracellular concentrations of ginsenosides were measured by LC/MS. All experiments were conducted in triplicate.

Data set [3] in a line: Transport of digoxin and ginsenosides across Caco-2 cell monolayer (efflux ratio). The class given is in vitro ADME, human. As to conditions: human. As for the experimental part:
(§4) Caco-2 cells were purchased from American Type Culture Collection (Manassas, VA), and were routinely cultured in Dulbecco's modified Eagle's medium supplemented with 10% fetal bovine serum, 1% nonessential amino acids, 1 mM sodium pyruvate, and 100 U/mL penicillin and streptomycin (Invitrogen, Carlsbad, CA). The cells were grown in an atmosphere of 5% CO2 at 37°C, and cell medium was changed every other day. Cells were seeded at a density of 4×10^4 cells per well in 24-well microporous polycarbonate insert filter plates (0.4-µm pore size) (Corning Costar plates; Corning Life Sciences, Lowell, MA) and grown for 15 days in Caco-2 growth medium. The medium was replaced every 3 to 4 days. Before running the assay, the culture medium was replaced by HBSS buffer supplemented with 10 mM Hepes and 20 mM glucose.
Caco-2 cells with a density of 1.2×10^5 cells/insert were seeded on a permeable polycarbonate insert (Millicell cell culture inserts, 0.4 µm pore size, 12 mm diameter; Millipore Corporation) in 24-well tissue culture plates and were used for the experiment 18 to 21 days after seeding. [^14C]Mannitol permeability and transepithelial electrical resistance measurements (Millicell-ERS epithelial volt-ohm meter; Millipore Corporation) were used to evaluate the integrity of Caco-2 cell monolayer. The monolayer used in transport studies had transepithelial electrical resistance values exceeding 600 Ω·cm^2, and the leakage of mannitol was less than 0.3% of the dose/h. Before transport initiation studies, the cell monolayer was first washed with warm HBSS (pH 7.4) twice. HBSS containing SLE (2.0 and 10.0 µg/mL) or 1% ethanol (control) was then loaded into both apical and basolateral chambers. After incubation at 37°C for 1.5 h, 100 µg/mL of GE was added to either the apical or basolateral side to evaluate the transport in absorptive and secretory directions, and the cell monolayer was incubated for another 2 h. 10 µM verapamil was used as a positive control inhibitor. At the designated time point, samples were taken from the receiving chamber for analysis. Ginsenosides were determined by LC-MS. All experiments were conducted in triplicate.
as §2, §3
(In general: Caco-2 monolayers are a common model of the intestinal barrier.)

Another data set deals with Caco-2 cells. Description: Uptake of digoxin and ginsenosides in Caco-2 cells. The format is in vitro ADME, human. The following applies: for Effect of verapamil on uptake: 10 µM verapamil; for Effect of SLE on intracellular concentration: SLE 2.0 and 10.0 µg/mL, P<0.01. As for the experimental part:
as §4
Caco-2 cells were incubated with SLE (2.0 and 10.0 µg/mL) or verapamil (10 µM) for 1.0 h. Then the cells were washed with Hank's to discard SLE or verapamil before the addition of GE (100 µg/mL). The accumulation of ginsenosides lasted for 2 h, and the intracellular concentrations of ginsenosides were measured by LC/MS. All experiments were conducted in triplicate.

The mark [4] stands for this setting: pH 7.4, Caco-2 cell monolayer, absence of inhibitor, GE 100 µg/mL, read-out: Efflux ratio.

Chain of human MDR1-encoded P-gp (L-MDR1 cells) (P08183 whole entry): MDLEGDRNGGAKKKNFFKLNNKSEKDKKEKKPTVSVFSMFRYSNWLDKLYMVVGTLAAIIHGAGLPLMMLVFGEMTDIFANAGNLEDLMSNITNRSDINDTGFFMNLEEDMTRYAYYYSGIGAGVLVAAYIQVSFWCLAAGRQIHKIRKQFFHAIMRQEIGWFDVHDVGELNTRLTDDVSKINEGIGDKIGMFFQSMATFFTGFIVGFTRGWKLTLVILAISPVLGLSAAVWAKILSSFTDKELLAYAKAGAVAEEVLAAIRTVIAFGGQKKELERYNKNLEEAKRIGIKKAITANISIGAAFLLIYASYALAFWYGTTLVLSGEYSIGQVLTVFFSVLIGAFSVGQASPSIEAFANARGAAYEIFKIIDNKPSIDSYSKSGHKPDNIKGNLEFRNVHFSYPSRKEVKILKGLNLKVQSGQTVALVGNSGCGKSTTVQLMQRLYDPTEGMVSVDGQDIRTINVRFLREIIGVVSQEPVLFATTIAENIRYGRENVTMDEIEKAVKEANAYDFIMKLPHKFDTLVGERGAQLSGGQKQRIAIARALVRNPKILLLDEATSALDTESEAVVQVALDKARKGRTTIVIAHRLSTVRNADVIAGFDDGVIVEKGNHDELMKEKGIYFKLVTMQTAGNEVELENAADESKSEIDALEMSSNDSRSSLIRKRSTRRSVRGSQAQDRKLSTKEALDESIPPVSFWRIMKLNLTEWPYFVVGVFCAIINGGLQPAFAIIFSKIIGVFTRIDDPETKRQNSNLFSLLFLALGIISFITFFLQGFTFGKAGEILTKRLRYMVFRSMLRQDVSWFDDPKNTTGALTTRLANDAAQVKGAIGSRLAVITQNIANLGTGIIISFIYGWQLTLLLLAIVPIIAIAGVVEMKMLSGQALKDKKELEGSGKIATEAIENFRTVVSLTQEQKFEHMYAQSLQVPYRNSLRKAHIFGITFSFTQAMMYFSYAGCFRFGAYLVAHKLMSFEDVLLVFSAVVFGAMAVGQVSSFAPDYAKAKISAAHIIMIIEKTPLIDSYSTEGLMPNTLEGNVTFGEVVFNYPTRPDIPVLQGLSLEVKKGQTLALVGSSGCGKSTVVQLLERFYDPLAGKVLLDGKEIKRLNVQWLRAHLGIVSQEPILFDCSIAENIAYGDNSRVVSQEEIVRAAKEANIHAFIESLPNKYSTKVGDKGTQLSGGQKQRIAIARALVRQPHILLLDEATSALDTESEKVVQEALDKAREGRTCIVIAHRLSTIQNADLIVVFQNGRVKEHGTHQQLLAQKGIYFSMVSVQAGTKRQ

Regarding `C[C@H]1O[C@@H](O[C@H]2[C@@H](O)C[C@H](O[C@H]3[C@@H](O)C[C@H](O[C@H]4CC[C@@]5(C)[C@H](CC[C@@H]6[C@@H]5C[C@@H](O)[C@]5(C)[C@@H](C7=CC(=O)OC7)CC[C@]65O)C4)O[C@@H]3C)O[C@@H]2C)C[C@H](O)[C@@H]1O` [Digoxin, digoxin, reference compound], in data set [1], the “Effect of verapamil on transport (efflux ratio)” value (from here on “Effect … (efflux ratio)”) is recorded as “No transport difference” and the “Effect of SLE on transport (AP→BL, BL→AP)” value (shortened to “Effect of SLE on transport”) is recorded as “No transport difference”. Further, the “Increase of intracellular concentration by SLE” value (from here on “Increase”) in data set [2] (2.0 µg/mL SLE) was 2.7 fold. Moreover, in data set [2] (10 µM verapamil, P<0.05), the “Enhancement of uptake level by verapamil” value was found to be 3.2 fold. Besides, the “Increase” value in data set [2] (10.0 µg/mL SLE) is 3.6 fold. In addition, the efflux ratio at 2 h, 100 µg/mL in data set [3] (setting [4]) was 3.23. For the same compound, the “Effect of verapamil on uptake” value in the data set with Caco-2 cells is given as “significantly enhanced”.
As for `CC(C)=CCC[C@](C)(O[C@@H]1O[C@H](CO[C@@H]2O[C@H](CO)[C@@H](O)[C@H](O)[C@H]2O)[C@@H](O)[C@H](O)[C@H]1O)[C@H]1CC[C@]2(C)[C@@H]1[C@H](O)C[C@@H]1[C@@]3(C)CC[C@H](O[C@@H]4O[C@H](CO)[C@@H](O)[C@H](O)[C@H]4O[C@@H]4O[C@H](CO)[C@@H](O)[C@H](O)[C@H]4O)C(C)(C)[C@@H]3CC[C@]12C` [Rb1, ginsenoside Rb1], in data set [1], the “Effect … (efflux ratio)” value is “No transport difference” and the “Effect of SLE on transport” value was “No transport difference”. In addition, the “Increase” value in data set [2] (2.0 µg/mL SLE) came to 2.9 fold. Further, the “Increase” value in data set [2] (10.0 µg/mL SLE) is listed as 5.1 fold. In data set [3] (setting [4]), the efflux ratio at 2 h, 100 µg/mL came out at 3.77. Further, in the data set on Caco-2 cells, the “Effect of verapamil on uptake” value is on record as “significantly enhanced” and the “Effect of SLE on intracellular concentration” value is listed as “concentration dependently increase”.
`CC(C)=CCC[C@](C)(O[C@@H]1O[C@H](CO[C@@H]2OC[C@H](O)[C@H](O)[C@H]2O)[C@@H](O)[C@H](O)[C@H]1O)[C@H]1CC[C@]2(C)[C@@H]1[C@H](O)C[C@@H]1[C@@]3(C)CC[C@H](O[C@@H]4O[C@H](CO)[C@@H](O)[C@H](O)[C@H]4O[C@@H]4O[C@H](CO)[C@@H](O)[C@H](O)[C@H]4O)C(C)(C)[C@@H]3CC[C@]12C` [Rb2, ginsenoside Rb2]: the “Effect of SLE on transport” value in data set [1] is recorded as “No transport difference”. Besides, the “Increase” value in data set [2] (2.0 µg/mL SLE) amounted to 2.0 fold. The “Increase” value in data set [2] (10.0 µg/mL SLE) came to 3.7 fold. For the same compound, in the data set on Caco-2 cells, the “Effect of verapamil on uptake” value was “significantly enhanced” and the “Effect of SLE on intracellular concentration” value is listed as “concentration dependently increase”.
`CC(C)=CCC[C@](C)(O[C@@H]1O[C@H](CO[C@@H]2O[C@@H](CO)[C@H](O)[C@H]2O)[C@@H](O)[C@H](O)[C@H]1O)[C@H]1CC[C@]2(C)[C@@H]1[C@H](O)C[C@@H]1[C@@]3(C)CC[C@H](O[C@@H]4O[C@H](CO)[C@@H](O)[C@H](O)[C@H]4O[C@@H]4O[C@H](CO)[C@@H](O)[C@H](O)[C@H]4O)C(C)(C)[C@@H]3CC[C@]12C` [Rc, ginsenoside Rc]: in data set [1], the “Effect … (efflux ratio)” value is “No transport difference” and the “Effect of SLE on transport” value is “No transport difference”. In addition, the “Increase” value in data set [2] (2.0 µg/mL SLE) stood at 1.9 fold. Also, the “Increase” value in data set [2] (10.0 µg/mL SLE) turned out to be 3.5 fold. Moreover, in data set [3] (Caco-2, pH 7.4), the efflux ratio at 2 h, 100 µg/mL is 4.36.
With `CC(C)=CCC[C@](C)(O[C@@H]1O[C@H](CO)[C@@H](O)[C@H](O)[C@H]1O)[C@H]1CC[C@]2(C)[C@@H]1[C@H](O)C[C@@H]1[C@@]3(C)CC[C@H](O[C@@H]4O[C@H](CO)[C@@H](O)[C@H](O)[C@H]4O[C@@H]4O[C@H](CO)[C@@H](O)[C@H](O)[C@H]4O)C(C)(C)[C@@H]3CC[C@]12C` [Rd, ginsenoside Rd], in data set [1], the “Effect … (efflux ratio)” value was “No transport difference” and the “Effect of SLE on transport” value was “No transport difference”. Moreover, the “Increase” value in data set [2] (2.0 µg/mL SLE) amounted to 2.9 fold. Besides, the “Increase” value in data set [2] (10.0 µg/mL SLE) came to 4.3 fold. The efflux ratio at 2 h, 100 µg/mL in data set [3] (setting [4]) worked out at 4.47. Also, in the data set on Caco-2 cells, the “Effect of verapamil on uptake” value is listed as “significantly enhanced” and the “Effect of SLE on intracellular concentration” value is “concentration dependently increase”.
